Read-outs that look alike come from different tables or passages of the source.
Columns and labels:
[1] = target: T1, TcrNT2 (Trypanosoma cruzi, UniProt Q4DHG0); experiment: Transport of [^3H]-thymidine by TcrNT2 expressed in L. mexicana Cas9^ΔNT1 (Km, inhibition); format: cell-based; settings: for δ(ΔG°) with respect to ΔG° of thymidine: change in ΔG° relative to thymidine; for δ(ΔG°), pairwise comparison with uridine: pairwise comparison vs. uridine; for δ(ΔG°), pairwise comparison with 2′-deoxyuridine: pairwise comparison vs. 2′-deoxyuridine
Protocol: These values can be used to calculate the Gibbs free energy of interaction ΔG°, but these experiments cannot distinguish between the test compound being transported or merely binding to the transporter and inhibiting the transit of the [^3H]-thymidine.
Transport assays were conducted with radiolabeled nucleosides [methyl-^3H]-thymidine (20 Ci/mmol; PerkinElmer (Waltham, MA, USA)) and [2,8-^3H]-adenosine (40 Ci/mmol; American Radiolabeled Chemicals (ARC, St-Louis, MO, USA)). Cells were harvested from mid-log phase cultures by centrifugation and washed into an assay buffer (AB) as described, at a density of 1 × 10^8 cells mL^−1. Transport assays were then performed exactly as described previously, using an oil-stop protocol. Briefly, 100 µL of cell suspension (10^7 cells) was mixed with 100 µL of [^3H]-substrate at 2 × final concentration and incubated for a pre-set time prior to the addition of 800 µL of ice-cold AB containing a saturating concentration of unlabeled permeant (usually 1 or 2.5 mM) and immediate centrifugation through an oil layer to separate cells from extracellular radiolabel. The 100 µL of [^3H]-substrate could also contain unlabeled substrate or an inhibitor at 2 × concentration, as appropriate. Next, the microfuge tubes were flash frozen in liquid nitrogen; the tips with the cell pellets cut off and collected in scintillation tubes. Cells were solubilized by incubation in 2% SDS under gentle shaking on a rocking platform prior to the addition of scintillation fluid (Scintilogic U, Lablogic, Sheffield, UK). The tubes stored in the dark overnight before counting in a 300SL Hidex Scintillation Counter (Lablogic).
Michaelis-Menten constants (Km) were calculated by plotting transport rates of [^3H]-substrate against the concentration, using the Michaelis-Menten equation V0 = Vmax([substrate]/([substrate] + Km)) and non-linear regression in GraphPad Prism 8. Inhibition constants (Ki) were calculated using the Cheng-Prusoff equation: Ki = IC50/(1 + (L/Km)), where L represents the radiolabel concentration. The IC50 was obtained by a non-linear regression of the inhibition curve of transport rate versus inhibitor concentration, using an equation for a sigmoid curve with variable slope (GraphPad Prism 8). The Gibbs free energy ΔG° was obtained using the equation ΔG° = −RTln(Ki), in which R is the gas constant and T is the absolute temperature. As discussed previously, these equations apply to competitive rather than non-competitive inhibition. Given that only close analogues of the substrate were used as potential inhibitors and that Hill slopes were consistently close to −1, it is very likely that inhibition was indeed competitive.

[2] = target: T1, TcrNT2; settings: cited from earlier work; for Ki: earlier characterization, TcrNT2 expressed in T. brucei, ref Campagnaro et al. [30], read-out: Ki on thymidine transport by TcrNT2
[3] = system: L. mexicana Cas9 promastigotes; experiment: Alamar blue drug sensitivity assay, L. mexicana Cas9 promastigotes; format: cell-based, Leishmania mexicana; settings: Leishmania mexicana, 120 h, 72 h + 48 h resazurin, at least 3 independent determinations, read-out: EC50 (µM) AVG ± SEM, Cas9
Description: (§1) We used L. mexicana promastigotes of the Cas9 strain developed by Beneke at al. to generate the ΔNT1 strain, and from there the Cas9^ΔNT1+TcrNT2 (see below); The original Cas9 strain was generously donated by Prof. Eva Gluenz (University of Bern, Switzerland). All strains in standard HOMEM (GIBCO, Life Technologies, Paisley, UK) supplemented with 10% heat-inactivated fetal bovine serum (FBS; PAA Laboratories, Linz, Austria) and 1% of a penicillin–streptomycin solution (10,000 U mL^−1 each; Life Technologies) at 25 °C, as described.
(§2) The Alamar blue assay (resazurin sodium salt) was used to determine the drug sensitivity of the L. mexicana promastigotes in vitro. The assay is based on the reduction of resazurin sodium salt (blue and non-fluorescent) to resorufin (pink color and fluorescent) by live cells. HOMEM medium with 10% FBS (100 μL) was added to all wells of a white 96-well plate apart from the first well. 200 μL of a known concentration of test compounds was diluted in HOMEM medium and placed in the first well. Compounds were tested in one plate and every compound was diluted over two rows (23 concentrations), leaving the last well of every dilution as a negative control having 100 μL HOMEM medium. Next, 100 μL of L. mexicana culture at a density of 2 × 10^6 cells mL^−1 was added into every well in the plate and incubated for 72 h at a temperature of 25 °C after which resazurin sodium salt (Sigma) (20 μL of a solution of 12.5 mg in 100 mL PBS) was added and the plate was incubated under the same conditions for a further 48 h. Fluorescence was measured in a FLUOstar OPTIMA plate reader (BMG Labtech, Germany), at a wavelength of 544 nm for excitation and 620 nm for emission. The EC50 values and fluorescence data were determined and plotted by the GraphPad Prism 8 Software using an equation for a sigmoid curve with variable slope. Pentamidine was used as positive control and every experiment was performed 3–4 times independently.

[4] = system: L. mexicana Cas9^ΔNT1 promastigotes; experiment: Alamar blue drug sensitivity assay, L. mexicana Cas9^ΔNT1 promastigotes; format: cell-based, Leishmania mexicana; settings: EC50 Cas9^ΔNT1 relative to L. mexicana Cas9
Description: as §1, §2

[5] = system: L. mexicana Cas9^ΔNT1+TcrNT2 promastigotes; experiment: Alamar blue drug sensitivity assay, L. mexicana Cas9^ΔNT1+TcrNT2 promastigotes; format: cell-based, Leishmania mexicana; settings: Cas9^ΔNT1+TcrNT2 in comparison to L. mexicana Cas9^ΔNT1
Description: as §1, §2

[6] = calculated from Km or Ki at 25 °C
[7] = read-out: Ki on the transport of [^3H]-thymidine by TcrNT2
[8] = TcrNT2 in L. mexicana Cas9^ΔNT1, […] [^3H]-thymidine, IC50 converted to Ki (Cheng-Prusoff), read-out: Ki on the transport of [^3H]-thymidine by TcrNT2

T1 sequence (Q4DHG0 entry or part of it): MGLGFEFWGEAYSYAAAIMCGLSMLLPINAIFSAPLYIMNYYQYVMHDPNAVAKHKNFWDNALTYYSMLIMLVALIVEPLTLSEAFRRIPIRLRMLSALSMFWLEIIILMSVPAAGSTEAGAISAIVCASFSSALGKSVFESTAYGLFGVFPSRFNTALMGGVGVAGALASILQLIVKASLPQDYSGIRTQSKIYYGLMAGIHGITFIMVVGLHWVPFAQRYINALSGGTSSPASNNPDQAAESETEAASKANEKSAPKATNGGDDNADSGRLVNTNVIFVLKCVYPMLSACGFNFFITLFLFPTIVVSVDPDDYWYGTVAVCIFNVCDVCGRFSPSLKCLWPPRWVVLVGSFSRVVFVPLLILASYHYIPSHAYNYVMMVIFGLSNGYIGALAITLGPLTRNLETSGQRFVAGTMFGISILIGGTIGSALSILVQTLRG

SMILES | EC50 [3] | RF vs. Cas9 (resistance factor) [4] | RF vs. ΔNT1 (resistance factor) [5] | other results
Cc1cn([C@H]2C[C@H](O)[C@@H](CO)O2)c(=S)[nH]c1=O [2-thiothymidine] | – | – | – | Ki [1]: 3.38 ± 0.26 µM; ΔG° (Gibbs free energy of interaction) [1]: -7.46 kcal/mol
O=c1ccn([C@H]2C[C@H](O)[C@@H](CO)O2)c(=O)[nH]1 [2′-deoxyuridine] | – | – | – | ΔG° (Gibbs free energy of interaction) [1, 6]: -8.03 kcal/mol; δ(ΔG°) with respect to ΔG° of thymidine [1]: -0.954 kcal/mol; Ki [1, 7]: 1.31 ± 0.002 µM; Ki [2]: 1.11 ± 0.1 µM
Cc1cn([C@H]2CC[C@@H](CO)O2)c(=O)[nH]c1=O [3′-deoxythymidine] | – | – | – | ΔG° (Gibbs free energy of interaction) [1, 6]: -4.76 kcal/mol; δ(ΔG°) with respect to ΔG° of thymidine [1]: -4.21 kcal/mol; Ki [1, 7]: 322 ± 22.6 µM
Cc1cn([C@H]2C[C@H](O)[C@@H](CO)O2)c(=O)[nH]c1=S [4-thiothymidine] | – | – | – | ΔG° (Gibbs free energy of interaction) [1, 6]: -7.58 kcal/mol; Ki [1, 7]: 2.79 ± 0.11 µM
O=c1[nH]c(=O)n([C@@H]2O[C@H](CO)[C@@H](O)[C@H]2O)cc1Br [5-Br-uridine] | – | – | – | Ki [1, 8]: 30.1 ± 1.8 µM; ΔG° (Gibbs free energy of interaction) [1, 6]: -6.17 kcal/mol; δ(ΔG°) with respect to ΔG° of thymidine [1]: -2.82 kcal/mol; δ(ΔG°), pairwise comparison with uridine [1]: -1.03 kcal/mol
O=c1[nH]c(=O)n([C@H]2C[C@H](O)[C@@H](CO)O2)cc1I [5-I-2′-deoxyuridine] | – | – | – | Ki [1, 8]: 0.19 ± 0.04 µM; ΔG° (Gibbs free energy of interaction) [1, 6]: -9.15 kcal/mol; δ(ΔG°), pairwise comparison with 2′-deoxyuridine [1]: 1.14 kcal/mol; δ(ΔG°), pairwise comparison with 2′-deoxyuridine ([1]; listed as 5-I-2′-dUrd): -1.15 kcal/mol
Cc1cn([C@@H]2O[C@H](CO)[C@@H](O)[C@H]2O)c(=O)[nH]c1=O [5-Me-uridine, 5-methyluridine] | – | – | – | ΔG° (Gibbs free energy of interaction) [1, 6]: -6.21 kcal/mol; δ(ΔG°) with respect to ΔG° of thymidine [1]: -2.77 kcal/mol; δ(ΔG°) with respect to ΔG° of thymidine ([1]; listed as 5-Me-Urd): 2.77 kcal/mol; δ(ΔG°) with respect to ΔG° of thymidine ([1]; listed as 5-methyluridine): 2.765 kcal/mol; δ(ΔG°), pairwise comparison with uridine [1]: -1.08 kcal/mol; Ki [1, 7]: 28 ± 0.4 µM
Cc1cn([C@H]2C[C@H](O)[C@@H](C)O2)c(=O)[nH]c1=O [5′-deoxythymidine] | – | – | – | ΔG° (Gibbs free energy of interaction) [1, 6]: -7.72 kcal/mol; δ(ΔG°) with respect to ΔG° of thymidine [1]: -1.26 kcal/mol; Ki [1, 7]: 2.2 ± 0.03 µM
C[C@H]1O[C@@H](n2ccc(=O)[nH]c2=O)[C@H](O)[C@@H]1O [5′-deoxyuridine] | – | – | – | δ(ΔG°), pairwise comparison with uridine [1]: -1.05 kcal/mol; Ki [1, 7]: 1020 ± 57 µM
Cc1ncnc2c1c(-c1ccc(Cl)cc1)cn2[C@@H]1O[C@H](CO)[C@@H](O)[C@H]1O [CL4501] | ~100 µM | 0.84 | 2.2 | –
CNc1ncnc2c1ccn2[C@@H]1O[C@H](CO)[C@@H](O)[C@H]1O [CL5564] | > 100 µM | – | >5.6 | –
Nc1ncnc2c1c(I)cn2[C@@H]1O[C@H](CO)[C@@H](O)[C@H]1O [FH3141] | 1.08 ± 0.202 µM | 13.4 | 7.83 | –
C#Cc1cn([C@@H]2O[C@H](CO)[C@@H](O)[C@H]2O)c2ncnc(N)c12 [FH3143] | 0.12 ± 0.021 µM | 7.74 | 3.11 | –
Nc1ncnc2c1c(F)cn2[C@@H]1O[C@H](CO)[C@@H](O)[C@H]1O [FH3167, 7-F-tubercidin] | 0.22 ± 0.09 µM | 40.7 | 41.9 | –
Nc1ncnc2c1c(C(F)(F)F)cn2[C@@H]1O[C@H](CO)[C@@H](O)[C@H]1O [FH6367, 7-(trifluoromethyl)-tubercidin] | 1.42 ± 0.177 µM | 1.44 | 1.91 | –
Nc1ncnc2c1c(Br)cn2[C@@H]1O[C@H](CO)C[C@H]1O [FH7429-UP] | 8 ± 0.8 µM | 1.17 | 2.27 | –
Nc1ncnc2c1c(-c1ccccc1)cn2[C@@H]1O[C@H](CO)C[C@H]1O [FH8480] | > 500 µM | – | – | –
C#Cc1cn([C@@H]2O[C@H](CO)C[C@H]2O)c2ncnc(N)c12 [FH8505] | 47.2 ± 1.47 µM | 1.13 | 1.47 | –
Nc1ncnc2c1c(-c1ccc(Cl)c(Cl)c1)cn2[C@@H]1O[C@H](CO)C[C@H]1O [FH8513, 7-(3,4-dichlorophenyl)-3′-deoxytubercidin] | ~100 µM | 0.94 | 3 | –
Nc1ncnc2c1c(F)cn2[C@@H]1O[C@H](CO)C[C@H]1O [FH8517, 7-F-3′-deoxytubercidin] | 3.18 ± 0.78 µM | 3.93 | 1.28 | –
Nc1ncnc2c1c(I)cn2[C@@H]1O[C@H](CO)[C@@H](F)[C@H]1O [JB526, 7-I,3′-F-tubercidin] | ~100 µM | ~0.84 | 11.6 | –
Nc1ncnc2c1c(F)cn2[C@@H]1O[C@H](CO)[C@@H](F)[C@H]1O [JB588, 7-F,3′-F-tubercidin] | 0.51 ± 0.093 µM | 17.3 | 2.15 | –
Nc1ncnc2c1c(-c1ccc(Cl)cc1)nn2[C@@H]1O[C@H](CO)[C@@H](O)[C@H]1O [JB602] | > 500 µM | – | – | –
Nc1ncnc2c1c(Br)nn2[C@@H]1O[C@H](CO)[C@@H](O)[C@H]1O [JBMAM021] | 3.8 ± 0.66 µM | 79.9 | 0.97 | –
Nc1ncnc2c1cnn2[C@@H]1O[C@H](CO)[C@@H](O)[C@H]1O [JBMAM030, aminopurinol riboside] | 7.81 ± 0.9 µM | 39.8 | 0.94 | –
N=C(N)c1ccc(OCCCCCOc2ccc(C(=N)N)cc2)cc1 [Pentamidine] | 0.87 ± 0.104 µM | 1.43 | 1.11 | –
O=c1ccn([C@@H]2O[C@H](CO)[C@@H](O)[C@H]2O)c(=O)[nH]1 [Uridine] | – | – | – | ΔG° (Gibbs free energy of interaction) [1, 6]: -5.14 kcal/mol; δ(ΔG°) with respect to ΔG° of thymidine [1]: -3.85 kcal/mol; δ(ΔG°) with respect to ΔG° of thymidine ([1]; listed as uridine): 3.85 kcal/mol; δ(ΔG°), pairwise comparison with 2′-deoxyuridine [1]: 2.89 kcal/mol; Ki [1, 7]: 172 ± 8 µM; fold lower affinity than thymidine ([2]; TcrNT2 expressed in T. b. brucei, ref [30]): 300 fold
Nc1ccn([C@@H]2O[C@H](CO)[C@@H](O)[C@H]2O)c(=O)n1 [cytidine] | – | – | – | Ki [2]: 728 ± 71 µM
